Starred links: 1 amine or outer side, 2 acyl side, 3 side chain; linkers in the order of their positions; H or OH if unused. Positions of bridges follow the written chain, without caps; N, C: chain ends. Non-standard residues stand in square brackets, D forms with d. Residues, ends and D or L forms follow the SMILES beside them. ξ: configuration not given here. 2Pal(6-thiazolin-2-yl-4R-CO) = O=C([C@H](Cc1cccc(C2=N[C@H](C(=O)[*:3])CS2)n1)N[*:1])[*:2]; Phe(3-(4R-CO-2-thiazolinyl)) = O=C([C@H](Cc1cccc(C2=N[C@H](C(=O)[*:3])CS2)c1)N[*:1])[*:2]; dCha = N[C@H](CC1CCCCC1)C(=O)O; ξL = CC(C)CC(N)C(=O)O
Assays:
[1] = Metabolic stability of cyclic peptides in human liver microsomes (HLM residual rate); assay type: in vitro ADME; settings: 1 μmol/L, human liver microsomes 0.5 mg protein/mL, 37° C., 20 minutes, NADPH and UDPGA
Procedure: Test of metabolic stability of cyclic peptide in human liver microsome
An experiment using human liver microsomes (HLMs) was carried out in order to compare and examine the metabolic stability of the synthesized cyclic peptides.
The compound with a final concentration of 1 μmol/L was incubated in human liver microsomes (BD Cat #452117) prepared to a final concentration of 0.5 mg protein/mL using 100 mmol/L phosphate buffer (pH 7.4) at 37° C. for 20 minutes in the presence of reduced nicotinamide adenine dinucleotide phosphate (NADPH) and uridine 5′-diphosphate-α-D-glucuronic acid (UDPGA). Deproteinization treatment with acetonitrile was carried out, the amount of unaltered substance remaining was quantified using LC/MS/MS, and the residual rate (%) in 20 minutes was calculated. The HLM residual rate (%) obtained by this method is described in the following table.
(§1) Evaluation standards are as follows.

[2] = Membrane permeability of synthesized cyclic peptides by PAMPA (Measurement Method A: 1 μmol/L; Method B: 10 μmol/L); assay type: in vitro ADME; settings: 25° C., 4 hours
Procedure: Evaluation of membrane permeability of synthesized cyclic peptide by PAMPA method In order to compare and examine the membrane permeability of the synthesized cyclic peptide, parallel artificial membrane permeability assay (PAMPA) was carried out.
An artificial phospholipid membrane was produced by adding 5 μL of a phospholipid organic solvent solution consisting of L-α-phosphatidylcholine (Avanti Polar Lipids, Inc., Cat. 840051P, 1.67%), 1,2-dioleoyl-sn-glycero-3-phospho-L-serine (Avanti Polar Lipids, Inc., Cat. 840035P, 0.33%), and n-dodecane special grade (Wako Pure Chemical Industries, Ltd., 047-21612)/1-octanol reagent special grade (Kanto Chemical Co., Inc., Cat. 31013-08)=10:1 to Filter Plate (Merck Millipore Corporation, Cat. MAIPN4550).
475 μL of 50 mmol/L potassium phosphate buffer (KPB, pH 7.4 or pH 6.5) was added to 25 μL of a DMSO solution containing the compound at a concentration of 20 μmol/L, so that the compound was diluted to a final concentration of 1 μmol/L. 300 μL of the compound solution was added to the lower side (donor side) of PAMPA 96-well plate (Filter Plate (Merck Millipore Corporation, Cat. MAIPN4550)) with an artificial phospholipid membrane being interposed therebetween. 200 μL of 5% DMSO KPB (pH 7.4) was added to the upper side (acceptor side) with the artificial phospholipid membrane being interposed therebetween. A permeation test through an artificial phospholipid membrane was carried out at 25° C. for 4 hours. The compound concentration in the solution in the donor plate and the acceptor plate was measured by LC/MS/MS, and the membrane permeation rate (Pe) of the compound was calculated from the following formula, assuming that C0 is an initial compound concentration in donor solution, t is a test time, A is a membrane filter area=0.3 cm^2, VD is a donor solution amount=300 μL, VA is an acceptor solution amount=200 μL, and CD(t) is a compound concentration in donor solution at time t, CA(t) is a compound concentration in acceptor solution at time t, and Cequilibrium=[CD(t)*VD+CA(t)*VA]/(VD+VA).
475 μL of 50 mmol/L potassium phosphate buffer (KPB, pH 7.4 or pH 6.5) was added to 25 μL of a DMSO solution containing the compound at a concentration of […], so that the compound was diluted to a final concentration of 10 μmol/L. The compound solution was added 300 μL each to the lower side (donor side) of an artificial phospholipid membrane of PAMPA 96-well plate (Filter Plate (Merck Millipore Corporation, Cat. MAIPN4550)). 200 μL of 5% DMSO KPB (pH 7.4) was added to the upper side (acceptor side) with the artificial phospholipid membrane being interposed therebetween. A permeation test through an artificial phospholipid membrane was carried out at 25° C. for 4 hours. The compound concentration in the solution in the donor plate and the acceptor plate was measured by LC/MS/MS, and the membrane permeation rate (Pe) of the compound was calculated from the following formula, assuming that Co is an initial compound concentration in donor solution, t is a test time, A is a membrane filter area=0.3 cm^2, VD is a donor solution amount=300 μL, VA is an acceptor solution amount=200 μL, and CD(t) is a compound concentration in donor solution at time t, CA(t) is a compound concentration in acceptor solution at time t, and Cequilibrium=[CD(t)*VD+CA(t)*VA]/(VD+VA).
The membrane permeability (Pe(10^−6 cm/s)) obtained by this method is described in the following table.
as §1

[3] = Measurement method B (10 μmol/L)

Pe(10^−6 cm/sec) ([2]; Measurement method A) | Compound | other results
– | N=C(N)NCCC[C@@H]1NC(=O)[C@H](Cc2c[nH]c3ccccc23)NC(=O)[C@@H](CC2CCCCC2)NC(=O)[C@@H]2CCCN2C(=O)[C@@H]2CSC(=N2)c2cc(ccn2)C[C@@H](C(N)=O)NC1=O [2-8] | HLM residual rate [1]: +++ (60%<HLM residual rate (%))
– | N=C(N)NCCC[C@@H]1NC(=O)[C@H](Cc2c[nH]c3ccccc23)NC(=O)[C@@H](CC2CCCCC2)NC(=O)[C@@H]2CCCN2C(=O)[C@@H]2CSC(=N2)c2cccc(n2)C[C@@H](C(N)=O)NC1=O [2-9] (P[dCha]WR[2Pal(6-thiazolin-2-yl-4R-CO)]-NH2; lactam N-5) | HLM residual rate [1]: +++ (60%<HLM residual rate (%))
– | N=C(N)NCCC[C@@H]1NC(=O)[C@H](Cc2c[nH]c3ccccc23)NC(=O)[C@@H](CC2CCCCC2)NC(=O)[C@@H]2CCCN2C(=O)[C@@H]2CSC(=N2)c2cnc(cn2)C[C@@H](C(N)=O)NC1=O [2-13] | HLM residual rate [1]: +++ (60%<HLM residual rate (%))
– | N=C(N)NCCC[C@@H]1NC(=O)[C@H](Cc2c[nH]c3ccccc23)NC(=O)[C@@H](CC2CCCCC2)NC(=O)[C@@H]2CCCN2C(=O)[C@@H]2CSC(=N2)c2cncc(n2)C[C@@H](C(N)=O)NC1=O [2-14] | HLM residual rate [1]: +++ (60%<HLM residual rate (%))
+++ (0.5<Pe (10^−6 cm/s)) | C[C@@]12CSC(=N1)c1cc(cs1)C[C@@H](C(N)=O)NC(=O)[C@H](CCCNC(=N)N)NC(=O)[C@H](Cc1c[nH]c3ccccc13)NC(=O)[C@@H](CC1CCCCC1)NC(=O)C1CCCN1C2=O (stereo partly shown) [a-1-1] | –
++ (0.2<Pe (10^−6 cm/s)≤0.5) | N=C(N)NCCC[C@@H]1NC(=O)[C@H](Cc2c[nH]c3ccccc23)NC(=O)[C@@H](CC2CCCCC2)NC(=O)[C@@H]2CCCN2C(=O)[C@@H]2CSC(=N2)c2cn(nn2)C[C@@H](C(N)=O)NC1=O [a-1-2] | –
+++ (0.5<Pe (10^−6 cm/s)) | Cn1nc2c3cc(ccc31)C[C@@H](C(N)=O)NC(=O)[C@H](CCCNC(=N)N)NC(=O)[C@H](Cc1c[nH]c3ccccc13)NC(=O)[C@@H](CC1CCCCC1)NC(=O)[C@@H]1CCCN1C(=O)[C@@H]1CSC2=N1 [a-1-3] | –
+++ (0.5<Pe (10^−6 cm/s)) | Cn1ccc2cc3c(nc21)C1=N[C@@H](CS1)C(=O)N1CCC[C@H]1C(=O)N[C@H](CC1CCCCC1)C(=O)N[C@@H](Cc1c[nH]c2ccccc12)C(=O)N[C@@H](CCCNC(=N)N)C(=O)N[C@H](C(N)=O)C3 [a-1-4] | –
– | N=C(N)NCCC[C@@H]1NC(=O)[C@H](Cc2c[nH]c3ccccc23)NC(=O)[C@@H](CC2CCCCC2)NC(=O)[C@@H]2CCCN2C(=O)[C@@H]2CSC(=N2)c2cn(cn2)-c2ccc(cc2)C[C@@H](C(N)=O)NC1=O [a-1-5] | Pe(10^−6 cm/sec) [2, 3]: ++ (0.2<Pe (10^−6 cm/s)≤0.5)
+++ (0.5<Pe (10^−6 cm/s)) | N=C(N)NCCC[C@@H]1NC(=O)[C@H](Cc2c[nH]c3ccccc23)NC(=O)[C@@H](CC2CCCCC2)NC(=O)[C@@H]2CCCN2C(=O)[C@@H]2CSC(=N2)c2cc(on2)C[C@@H](C(N)=O)NC1=O [a-1-6] | –
+++ (0.5<Pe (10^−6 cm/s)) | N=C(N)NCCC[C@@H]1NC(=O)[C@H](Cc2c[nH]c3ccccc23)NC(=O)[C@@H](CC2CCCCC2)NC(=O)[C@@H]2CCCN2C(=O)[C@@H]2CSC(=N2)c2ccc(cn2)OCCOCCOCCOCCOc2ccc(cc2)C[C@@H](C(N)=O)NC1=O [a-1-8] | –
+++ (0.5<Pe (10^−6 cm/s)) | N=C(N)NCCC[C@@H]1NC(=O)[C@H](Cc2c[nH]c3ccccc23)NC(=O)[C@@H](CC2CCCCC2)NC(=O)[C@@H]2CCCN2C(=O)[C@@H]2CSC(=N2)c2ccc(s2)C(=O)NCCOCCOCCOCCOc2ccc(cc2)C[C@@H](C(N)=O)NC1=O [a-1-9] | –
+++ (0.5<Pe (10^−6 cm/s)) | N=C(N)NCCC[C@@H]1NC(=O)[C@H](Cc2c[nH]c3ccccc23)NC(=O)[C@@H](CC2CCCCC2)NC(=O)[C@@H]2CCCN2C(=O)[C@@H]2CSC(=N2)c2coc(n2)-c2csc(n2)C[C@@H](C(N)=O)NC1=O [a-1-10] | –
+++ (0.5<Pe (10^−6 cm/s)) | N=C(N)NCCC[C@@H]1NC(=O)[C@H](Cc2c[nH]c3ccccc23)NC(=O)[C@@H](CC2CCCCC2)NC(=O)[C@@H]2CCCN2C(=O)[C@@H]2CSC(=N2)c2csc(n2)-c2csc(n2)C[C@@H](C(N)=O)NC1=O [a-1-11] | –
+++ (0.5<Pe (10^−6 cm/s)) | N=C(N)NCCC[C@@H]1NC(=O)[C@H](Cc2c[nH]c3ccccc23)NC(=O)[C@@H](CC2CCCCC2)NC(=O)[C@@H]2CCCN2C(=O)[C@@H]2CSC(=N2)c2cn3c(cccc3n2)C[C@@H](C(N)=O)NC1=O [a-1-12] | –
– | N=C(N)NCCC[C@@H]1NC(=O)[C@H](Cc2c[nH]c3ccccc23)NC(=O)[C@@H](CC2CCCCC2)NC(=O)[C@@H]2CCCN2C(=O)[C@@H]2CSC(=N2)c2cn3cc(ncc3n2)-c2cccc(c2)C[C@@H](C(N)=O)NC1=O [a-1-14] | Pe(10^−6 cm/sec) [2, 3]: +++ (0.5<Pe (10^−6 cm/s))
– | N=C(N)NCCC[C@@H]1NC(=O)[C@H](Cc2c[nH]c3ccccc23)NC(=O)[C@@H](CC2CCCCC2)NC(=O)[C@@H]2CCCN2C(=O)[C@@H]2CSC(=N2)c2cn3nc(ccc3n2)-c2cccc(c2)C[C@@H](C(N)=O)NC1=O [a-1-15] | Pe(10^−6 cm/sec) [2, 3]: ++ (0.2<Pe (10^−6 cm/s)≤0.5)
– | N=C(N)NCCC[C@@H]1NC(=O)[C@H](Cc2c[nH]c3ccccc23)NC(=O)[C@@H](CC2CCCCC2)NC(=O)[C@@H]2CCCN2C(=O)[C@@H]2CSC(=N2)c2cn3cc(cnc3n2)-c2cccc(c2)C[C@@H](C(N)=O)NC1=O [a-1-16] | Pe(10^−6 cm/sec) [2, 3]: ++ (0.2<Pe (10^−6 cm/s)≤0.5)
+++ (0.5<Pe (10^−6 cm/s)) | N=C(N)NCCC[C@@H]1NC(=O)[C@H](Cc2c[nH]c3ccccc23)NC(=O)[C@@H](CC2CCCCC2)NC(=O)[C@@H]2CCCN2C(=O)[C@@H]2CSC(=N2)c2ccc(cc2)[C@@H](C(N)=O)NC1=O [a-1-19] | –
– | CC(C)C[C@@H]1NC(=O)[C@@H]2CSC(=N2)c2cccc(c2)C[C@@H](C(N)=O)NC(=O)[C@H](CC(C)C)NC(=O)[C@H](C)NC(=O)[C@H](Cc2ccccc2)NC(=O)[C@H](C)NC(=O)[C@@H]2CCCN2C(=O)[C@H](C)NC(=O)[C@H](CC(C)C)NC(=O)[C@H](CC(C)C)NC(=O)[C@@H]2CCCN2C(=O)[C@H](CC(C)C)NC(=O)[C@H](CCCNC(=N)N)NC(=O)[C@H](CC(C)C)NC1=O [a-3-1] (LLRLPLLAPAFAL[Phe(3-(4R-CO-2-thiazolinyl))]-NH2; lactam N-14) | Pe(10^−6 cm/sec) [2, 3]: +++ (0.5<Pe (10^−6 cm/s))
++ (0.2<Pe (10^−6 cm/s)≤0.5) | CC(C)C[C@@H]1NC(=O)[C@@H]2CSC(=N2)c2cccc(c2)C[C@@H](C(=O)N[C@@H](C)C(=O)N[C@@H](CC(C)C)C(=O)N[C@@H](Cc2ccccc2)C(=O)N[C@@H](CC(C)C)C(=O)N[C@@H](C)C(N)=O)NC(=O)[C@@H]2CCCN2C(=O)[C@H](CCCCN)NC1=O [a-3-2] (LKP[Phe(3-(4R-CO-2-thiazolinyl))]ALFLA-NH2; lactam N-4) | –
– | CC(=O)N[C@H]1CCCCNC(=O)[C@@H]2CSC(=N2)c2cccc(c2)C[C@@H](C(N)=O)NC(=O)[C@H](C)NC(=O)C(CC(C)C)NC(=O)[C@H](CCCCN)NC(=O)[C@H](CC(C)C)NC(=O)[C@H](C)NC(=O)[C@H](CC(C)C)NC1=O (stereo partly drawn) [a-4-1] (Ac-KLALK[ξL]A[Phe(3-(4R-CO-2-thiazolinyl))]-NH2; lactam 1-8) | Pe(10^−6 cm/sec) [2, 3]: + (0.01<Pe (10^−6 cm/s)≤0.2)

From US11319347B2, “Peptide compound and method for producing same, composition for screening use, and method for selecting peptide compound” (FUJIFILM Corporation, priority 2017, dated 2022)
